In ChEMBL document CHEMBL3137667, “[Drug-induced liver injury; fourteenth updated edition of the bibliographic database of liver injuries and related drugs]” (Gastroenterol Clin Biol, 2004):

How the values were obtained:
[1] = human, serum
[2] = human
[3] = human; remark: listed apart in the source
[4] = Highest frequency of moderate liver toxicity observed during clinical trials, expressed as a percentage. [column '% BIOL' in source]; settings: human
[5] = human; remark: listed apart in the source
[6] = human; remark: listed apart in the source
[7] = Times to onset, minimal and maximal, observed in the indexed observations. [column 'DELAI' in source]; settings: human
[8] = human; remark: listed apart in the source
[9] = human; remark: listed apart in the source
[10] = human; remark: listed apart in the source
[11] = Comments (NB not yet translated). [column 'COMMENTAIRES' in source]; settings: human
[12] = human, serum, 4383 h
[13] = Highest frequency of acute liver toxicity observed during clinical trials, expressed as a percentage. [column '% AIGUE' in source]; settings: human
[14] = human; remark: listed apart in the source
[15] = human; remark: listed apart in the source
[16] = Presence of at least one case with successful reintroduction. [column 'REINT' in source]; settings: human
[17] = human, serum; remark: listed apart in the source
[18] = Proposed mechanism(s) of liver damage. [column 'MEC' in source]; settings: human
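Throughout, for Hepatotoxicity (association with vascular disease): count of indexed literature references reporting vascular liver injury in humans, e.g. peliosis hepatitis, hepatic veno-occlusive disease or Budd-Chiari syndrome.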
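Throughout, for Hepatotoxicity (benign tumour): value is a count of indexed literature references citing a benign tumour confirmed by histopathology.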
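Throughout, for Hepatotoxicity (choleostasis): human cholestatic liver injury, shown by histopathology or by peak ALT or AST elevation over alkaline phosphatase ratio below 2, value counts indexed literature reports.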
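Throughout, for Hepatotoxicity (chronic liver disease): chronic liver injury confirmed by histopathology or persistently raised serum aminotransferase activity beyond 6 months, value given as the count of indexed literature references.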
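Throughout, for Hepatotoxicity (cirrhosis): value is a count of indexed literature references reporting cirrhosis confirmed by histopathology.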
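Throughout, for Hepatotoxicity (cytolytic): human cytolytic liver injury, shown by histopathology or by a ratio above 5 of peak ALT or AST elevation to alkaline phosphatase elevation, value counts indexed references.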
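Throughout, for Hepatotoxicity (granulomatous hepatitis): value is a count of indexed literature references reporting granulomatous liver disease confirmed by histopathology.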
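Throughout, for Hepatotoxicity (malignant tumour): malignant tumour confirmed by histopathology, value gives the count of indexed literature references reporting it.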
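Throughout, for Hepatotoxicity (severe hepatitis): human clinical data: severe hepatitis, meaning potentially life-threatening liver failure or clinically observed cases, the value counts how many indexed literature references report it.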
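Throughout, for Hepatotoxicity (steatosis): steatosis confirmed by histopathology, value is the count of indexed references.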

Row | SMILES | Hepatotoxicity (moderate) [1] | Hepatotoxicity (choleostasis) [2] | Hepatotoxicity (cirrhosis) [3] | Hepatotoxicity (benign tumour) [5] | Hepatotoxicity (association with vascular disease) [6] | Hepatotoxicity (time to onset) [7] | Hepatotoxicity (steatosis) [9] | Hepatotoxicity (malignant tumour) [10] | Hepatotoxicity (chronic liver disease) [12] | Hepatotoxicity (granulomatous hepatitis) [14] | Hepatotoxicity (cytolytic) [15] | Hepatotoxicity (successful reintroduction) [16] | Hepatotoxicity (moderate) [4] [%] | Hepatotoxicity (acute) [17] | Hepatotoxicity (severe hepatitis) [8] | Hepatotoxicity (mechanism) [18] | Hepatotoxicity (acute) [13] [%] | also measured
1 | CC(C)(C)c1ccc(C(O)CCCN2CCC(C(O)(c3ccccc3)c3ccccc3)CC2)cc1 (stereo not drawn) [TERFENADINE] | 1 | 2 | 0 | 0 | 0 | 4 weeks - 5 months | 0 | 0 | 0 | 0 | 2 | yes |  |  |  |  |  | Hepatotoxicity (moderate) ([4]; Liver): 19.2%; Hepatotoxicity (severe hepatitis) ([8]; Liver): 0; Hepatotoxicity (comment) [11]: DESTRUCTION_VB; Hepatotoxicity (acute) ([13]; Liver): 0%
2 | NC(=O)c1cccnc1 [NIACINAMIDE] | 1 | 0 | 0 | 0 | 0 | < 2 months - 3 months | 0 | 0 | 0 | 0 | 1 | yes | 6.3 | 2 | 0 | Dose-dependant | 0 | 
3 | Cc1oncc1C(=O)Nc1ccc(C(F)(F)F)cc1 [LEFLUNOMIDE] | 36 | 0 | 1 | 0 | 0 | 4 weeks - 20 months | 1 | 0 | 0 | 0 | 5 | yes | 56.7 | 6 | 3 | Dose-dependant | 10 | 
4 | NC(=O)NO [HYDROXYUREA] | 5 | 1 | 0 | 0 | 0 | 1 day - 3 months | 0 | 0 | 0 | 2 | 3 | yes | 12.5 | 4 | 1 | Allergic | 0 | 
5 | Nc1nc(O)c2ncn(COC(CO)CO)c2n1 [GANCICLOVIR] | 9 | 1 | 0 | 0 | 0 | 1 week - 26 days | 0 | 0 | 0 | 0 | 1 | yes | 55 | 1 | 0 | Dose-dependant | 0 | 
6 | Cc1onc(-c2ccccc2Cl)c1C(=O)N[C@@H]1C(=O)N2[C@@H]1SC(C)(C)[C@@H]2C(=O)O [CLOXACILLIN] | 5 | 8 | 0 | 0 | 0 | 2 days - 1 month | 0 | 0 | 0 | 0 | 0 | yes | 25 | 9 | 0 | Allergic | 0 | 
7 | Cn1c(=O)c2[nH]cnc2n(C)c1=O.O [THEOPHYLLINE] | 2 | 0 | 0 | 0 | 0 | 4 days - 11 days | 0 | 0 | 0 | 0 | 1 | yes | 55.6 | 1 | 0 | Dose-dependant | 0 | 
8 | Cc1nc2ccc(CN(C)c3ccc(C(=O)N[C@@H](CCC(=O)O)C(=O)O)s3)cc2c(=O)[nH]1 [RALTITREXED] | 20 | 1 | 1 | 0 | 0 | 2 weeks - 17 weeks | 1 | 0 | 0 | 0 | 7 | yes | 100 | 8 | 3 | Dose-dependant | 21.9 | 
9 | CC(C)(C)NC(=O)[C@@H]1C[C@@H]2CCCC[C@@H]2CN1C[C@@H](O)[C@H](Cc1ccccc1)NC(=O)[C@H](CC(N)=O)NC(=O)c1ccc2ccccc2n1 | 7 |  | 0 | 0 | 0 | < 1 day - 6 months | 0 | 0 | 0 |  |  | yes |  |  |  |  |  | Hepatotoxicity (choleostasis) ([2]; Liver): 0; Hepatotoxicity (moderate) ([4]; Liver): 44%; Hepatotoxicity (severe hepatitis) ([8]; Liver): 0; Hepatotoxicity (comment) [11]: REACTIVATION_HVB; Hepatotoxicity (acute) ([13]; Liver): 12.5%; Hepatotoxicity (granulomatous hepatitis) ([14]; Liver): 0; Hepatotoxicity (cytolytic) ([15]; Liver): 10
10 | CC(C)C[C@H]1C(=O)N2CCC[C@H]2[C@]2(O)O[C@](NC(=O)[C@@H]3C=C4c5cccc6[nH]c(Br)c(c56)C[C@H]4N(C)C3)(C(C)C)C(=O)N12 [BROMOCRIPTINE] | 6 | 0 | 0 | 0 | 0 | 4 days - 2 months | 0 | 0 | 0 | 0 | 2 | yes | 22 | 2 | 0 | Dose-dependant | 0 | 
